From patent US7834045B2, “N-substituted pyrazolyl carboxanilides” (Bayer CropScience AG, priority 2003, dated 2010)

Assays:
Puccinia recondita = test: Puccinia test (wheat)/protective; type: in vivo; conditions: protective, application rate 500 g/ha, evaluation 10 days after inoculation
Description: • Solvent: 25 parts by weight of N,N-dimethylacetamide • Emulsifier: 0.6 part by weight of alkylaryl polyglycol ether To produce a suitable preparation of active compound, 1 part by weight of active compound is mixed with the stated amounts of solvent and emulsifier, and the concentrate is diluted with water to the desired concentration. To test for protective activity, young plants are sprayed with the preparation of active compound at the stated application rate. After the spray coating has dried on, the plants are sprayed with a conidia suspension of Puccinia recondita. The plants remain in an incubation cabinet at 20° C. and 100% relative atmospheric humidity for 48 hours. The plants are then placed in a greenhouse at a temperature of about 20° C. and a relative atmospheric humidity of 80% to promote the development of rust pustules. Evaluation is carried out 10 days after the inoculation. 0% means an efficacy which corresponds to that of the control, whereas an efficacy of 100% means that no infection is observed.

Sphaerotheca fuliginea = test: Sphaerotheca test (cucumber)/protective; type: in vivo; conditions: protective, application rate 750 g/ha, evaluation 7 days after inoculation
Description: • Solvent: 49 parts by weight of N,N-dimethylformamide • Emulsifier: 1 part by weight of alkylaryl polyglycol ether To produce a suitable preparation of active compound, 1 part by weight of active compound is mixed with the stated amounts of solvent and emulsifier, and the concentrate is diluted with water to the desired concentration. To test for protective activity, young cucumber plants are sprayed with the preparation of active compound at the stated application rate. 1 day after the treatment, the plants are inoculated with a spore suspension of Sphaerotheca fuliginea. The plants are then placed in a greenhouse at 70% relative atmospheric humidity and a temperature of 23° C. Evaluation is carried out 7 days after the inoculation. 0% means an efficacy which corresponds to that of the control, whereas an efficacy of 100% means that no infection is observed.

[1] = log P determination by HPLC on reversed-phase column (EEC Directive 79/831 Annexe V.A8); type: physicochemical; conditions: reversed-phase HPLC column (C 18), pH 2.3, C 18, 43° C., preparation examples
Description: The log P values given in the preparation examples and tables above are determined in accordance with EEC Directive 79/831 Annexe V.A8 by HPLC (High Performance Liquid Chromatography) on a reversed-phase column (C 18). Temperature: 43° C.
The determination in the acidic range is carried out at pH 2.3 using the mobile phases 0.1% aqueous phosphoric acid and acetonitrile; linear gradient from 10% acetonitrile to 90% acetonitrile.
Calibration was carried out using unbranched alkan-2-ones (with 3 to 16 carbon atoms) with known log P values (determination of the log P values by the retention times using linear interpolation between two successive alkanones).

Podosphaera leucotricha = test: Podosphaera test (apple)/protective; type: in vivo; conditions: protective, application rate 100 g/ha, evaluation 10 days after inoculation
Description: (§1) • Solvents: 24.5 parts by weight of acetone • 24.5 parts by weight of dimethylacetamide • Emulsifier: 1 part by weight of alkylaryl polyglycol ether
(§2) To produce a suitable preparation of active compound, 1 part by weight of active compound is mixed with the stated amounts of solvents and emulsifier, and the concentrate is diluted with water to the desired concentration.
To test for protective activity, young plants are sprayed with the preparation of active compound at the stated application rate. After the spray coating has dried on, the plants are inoculated with an aqueous spore suspension of the apple mildew pathogen Podosphaera leucotricha. The plants are then placed in a greenhouse at about 23° C. and a relative atmospheric humidity of about 70%.
(§3) Evaluation is carried out 10 days after the inoculation. 0% means an efficacy which corresponds to that of the control, whereas an efficacy of 100% means that no infection is observed.

Venturia inaequalis = test: Venturia test (apple)/protective; type: in vivo; conditions: protective, application rate 100 g/ha, evaluation 10 days after inoculation
Description: as §1, §2
To test for protective activity, young plants are sprayed with the preparation of active compound at the stated application rate. After the spray coating has dried on, the plants are inoculated with an aqueous conidia suspension of the apple scab pathogen Venturia inaequalis and then remain in an incubation cabinet at about 20° C. and 100% relative atmospheric humidity for one day.
The plants are then placed in a greenhouse at about 21° C. and a relative atmospheric humidity of about 90%.
as §3

Botrytis cinerea = test: Botrytis test (bean)/protective; type: in vivo; conditions: protective, application rate 500 g/ha, evaluation 2 days after inoculation
Description: as §1
To produce a suitable preparation of active compound, 1 part by weight of active compound is mixed with the stated amounts of solvent and emulsifier, and the concentrate is diluted with water to the desired concentration.
To test for protective activity, young plants are sprayed with the preparation of active compound at the stated application rate. After the spray coating has dried on, 2 small pieces of agar colonized by Botrytis cinerea are placed onto each leaf. The inoculated plants are placed in a dark chamber at about 20° C. and 100% relative atmospheric humidity.
2 days after the inoculation, the size of the infected areas on the leaves is evaluated. 0% means an efficacy which corresponds to that of the control, whereas an efficacy of 100% means that no infection is observed.

For `Cc1nn(C)c(F)c1C(=O)N(C)c1ccccc1C(C)CC(C)(C)C` (centres unmarked), which Efficacy in % (Puccinia recondita) is on record?
The Efficacy in % was 100%.

Which Efficacy in % (Puccinia recondita) does the source give for `Cc1nn(C)c(F)c1C(=O)N(C)c1ccccc1C(C)CC(C)C` (centres unmarked) here?
The Efficacy in % was 100%.

Which Efficacy in % (Sphaerotheca fuliginea) does the source give for `CC(CC(C)(C)C)c1ccccc1N(C)C(=O)c1c(C(F)(F)F)nn(C)c1F` (centres unmarked) here?
The Efficacy in % was 100%.

Which chromatographic logP [1] does the source give for `CC(=O)N(C(=O)c1c(C(F)(F)F)nn(C)c1F)c1ccccc1C(C)CC(C)(C)C` (centres unmarked) [Example 1, N-acetyl-5-fluoro-1-methyl-3-(trifluoromethyl)-N-[2-(1,3,3-trimethylbutyl)phenyl]-1H-pyrazole-4-carboxamide] here?
Its chromatographic logP is 4.63.

Which chromatographic logP [1] does the source give for `CCOC(=O)C(=O)N(C(=O)c1c(C)nn(C)c1F)c1ccccc1C(C)CC(C)(C)C` (centres unmarked) [Example 2, ethyl {[(5-fluoro-1,3-dimethyl-1H-pyrazol-4-yl)carbonyl][2-(1,3,3-trimethylbutyl)phenyl]amino}(oxo)acetate] here?
Its chromatographic logP is 4.4.

Which chromatographic logP [1] does the source give for `CC(=O)Nc1ccccc1C(C)CC(C)C` (centres unmarked) [III-1, N-[2-(1,3-dimethylbutyl)phenyl]acetamide] here?
The chromatographic logP was 2.65.

With `COCN(C(=O)c1c(C(F)(F)F)nn(C)c1F)c1ccccc1C(C)CC(C)(C)C` (centres unmarked) [drawing 19] as the molecule, how does the Efficacy in % (Podosphaera leucotricha) read?
The Efficacy in % was 98%.

For `CCOC(=O)C(=O)N(C(=O)c1c(C)nn(C)c1F)c1ccccc1C(C)CC(C)(C)C` (centres unmarked) [drawing 20], which Efficacy in % (Podosphaera leucotricha) is on record?
Its Efficacy in % is 97%.

For `COCN(C(=O)c1c(C(F)(F)F)nn(C)c1F)c1ccccc1C(C)CC(C)(C)C` (centres unmarked) [drawing 21], which Efficacy in % (Venturia inaequalis) is on record?
The Efficacy in % was 100%.

For `CCOC(=O)C(=O)N(C(=O)c1c(C)nn(C)c1F)c1ccccc1C(C)CC(C)(C)C` (centres unmarked) [drawing 22], which Efficacy in % (Venturia inaequalis) is on record?
Its Efficacy in % is 100%.

For `COCN(C(=O)c1c(C(F)(F)F)nn(C)c1F)c1ccccc1C(C)CC(C)(C)C` (centres unmarked) [drawing 23], which Efficacy in % (Botrytis cinerea) is on record?
The Efficacy in % was 100%.

Which Efficacy in % (Botrytis cinerea) does the source give for `CCOC(=O)C(=O)N(C(=O)c1c(C)nn(C)c1F)c1ccccc1C(C)CC(C)(C)C` (centres unmarked) [drawing 24] here?
The Efficacy in % was 97%.

Which Efficacy in % (Puccinia recondita) does the source give for `COCN(C(=O)c1c(C(F)(F)F)nn(C)c1F)c1ccccc1C(C)CC(C)(C)C` (centres unmarked) [drawing 25] here?
Its Efficacy in % is 100%.

Which Efficacy in % (Sphaerotheca fuliginea) does the source give for `COCN(C(=O)c1c(C(F)(F)F)nn(C)c1F)c1ccccc1C(C)CC(C)(C)C` (centres unmarked) [drawing 29] here?
The Efficacy in % was 100%.
